Here are results for four compounds from PubChem BioAssay (NCI).

Some test systems named below: SF-295 CNS; SF-268 CNS; KM12 colon; IGROV1 ovarian; NCI/ADR-RES ovarian; CAKI-1 renal; HT29 colon; UACC-257 melanoma; SK-MEL-2 melanoma; LOX IMVI melanoma.
What all share (test): NCI-60 cell line screen, 48 h

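All cell lines were grown in 96-well plates and treated with compound for 48 hours. GI50 marks 50% less growth. TGI is the concentration that stops growth completely.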

Take `NCCOc1ncccc1/C=C1\c2ccccc2-c2ccc([N+](=O)[O-])cc21`: the GI50 in the experiment on SF-295 CNS is 24.6 nM; in the experiment on SF-268 CNS, 82.7 nM; in the experiment on KM12 colon, 110 nM; with IGROV1 ovarian, 131 nM; in the experiment on NCI/ADR-RES ovarian it was 154 nM; with CAKI-1 renal, 28.3 nM. Besides, the GI50 with HT29 colon is 89.8 nM; in the experiment with UACC-257 melanoma, 209 nM; with SK-MEL-2 melanoma, 314 nM; with LOX IMVI melanoma, 24.3 nM. The TGI turned out to be 161 nM in the experiment on SF-295 CNS; 619 nM in the experiment with SF-268 CNS; 546 nM with KM12 colon; 728 nM in the experiment on IGROV1 ovarian; 1120 nM in the experiment on NCI/ADR-RES ovarian; 231 nM in the experiment with CAKI-1 renal. In addition, the TGI with HT29 colon was 1040 nM; in the experiment with UACC-257 melanoma, 1390 nM; in the experiment on SK-MEL-2 melanoma, 754 nM; in the experiment on LOX IMVI melanoma it was 163 nM.

Consider `NC(CSC(c1ccccc1)(c1ccccc1)c1ccc(F)cc1)C(=O)O` (centres undefined), for which the GI50 in the experiment with SF-295 CNS was 346 nM; with SF-268 CNS, 505 nM; with KM12 colon, 405 nM; in the experiment with IGROV1 ovarian, 856 nM; with NCI/ADR-RES ovarian it was 2980 nM; with CAKI-1 renal, 790 nM. Moreover, the GI50 is 803 nM with HT29 colon, 635 nM in the experiment with UACC-257 melanoma, 1950 nM with SK-MEL-2 melanoma and 891 nM in the experiment on LOX IMVI melanoma. Moreover, the TGI is 13000 nM in the experiment with SF-295 CNS; 35100 nM in the experiment with SF-268 CNS; 20700 nM in the experiment with KM12 colon; more than 100000 nM in the experiment with IGROV1 ovarian; 19200 nM in the experiment with NCI/ADR-RES ovarian; more than 26800 nM in the experiment with CAKI-1 renal. Moreover, the values for the TGI in the experiment with HT29 colon, in the experiment on UACC-257 melanoma and with LOX IMVI melanoma were more than 27800 nM, more than 100000 nM and more than 100000 nM, respectively.

For `COc1ccc2[nH]c(C(=O)OCc3ccc4cccc(O)c4n3)cc2c1`, the GI50 was 4980 nM in the experiment on SF-295 CNS; 1650 nM with SF-268 CNS; 1940 nM in the experiment on KM12 colon; 751 nM in the experiment with IGROV1 ovarian; 1940 nM in the experiment with NCI/ADR-RES ovarian; 1130 nM in the experiment on CAKI-1 renal. In addition, the GI50 in the experiment with HT29 colon was 775 nM; in the experiment with UACC-257 melanoma it was 2020 nM; in the experiment on SK-MEL-2 melanoma, 1740 nM; in the experiment on LOX IMVI melanoma, 779 nM. Also, the TGI is 18100 nM in the experiment on SF-295 CNS; 3130 nM in the experiment with SF-268 CNS; 3900 nM in the experiment with KM12 colon; 2080 nM in the experiment with IGROV1 ovarian; 5910 nM in the experiment with NCI/ADR-RES ovarian; 2490 nM in the experiment on CAKI-1 renal. Further, the TGI in the experiment with HT29 colon turned out to be 2770 nM; in the experiment on UACC-257 melanoma, 5680 nM; in the experiment on SK-MEL-2 melanoma, 3720 nM; in the experiment with LOX IMVI melanoma it was 2140 nM.

Take `O=C(CN(/C=C/C(=O)C(F)(F)F)c1ccccc1)c1ccc(Cl)cc1`: the GI50 in the experiment on SF-295 CNS is 18800 nM; with SF-268 CNS it was 18900 nM; in the experiment on KM12 colon it was 15200 nM; with IGROV1 ovarian, 15500 nM; in the experiment with NCI/ADR-RES ovarian, 17600 nM; in the experiment with CAKI-1 renal it was 17800 nM. For the same compound, the GI50 in the experiment with HT29 colon is 34500 nM; in the experiment on UACC-257 melanoma, 19900 nM; with SK-MEL-2 melanoma, 19200 nM; in the experiment with LOX IMVI melanoma, 16000 nM. Further, the TGI in the experiment on SF-295 CNS amounted to 48200 nM; in the experiment with SF-268 CNS, 38800 nM; in the experiment on KM12 colon, 37700 nM; in the experiment with IGROV1 ovarian it was 43800 nM; in the experiment with NCI/ADR-RES ovarian, 36000 nM; in the experiment on CAKI-1 renal, 42500 nM. Besides, the TGI with HT29 colon was more than 100000 nM; in the experiment on UACC-257 melanoma it was 45900 nM; in the experiment with SK-MEL-2 melanoma, 43900 nM; in the experiment on LOX IMVI melanoma it was 32600 nM.
